Measurements reported in US7563590B2, “Methods of quantifying methotrexate metabolites” (Cypress Bioscience Inc., priority 2002, dated 2009).

Key:
gamma glutamyl hydrolase = target: T1, gamma glutamyl hydrolase (Homo sapiens, UniProt Q92820); assay: Enzymatic conversion of MTXPGs to MTX in RBC extract using plasma as source of gamma glutamyl hydrolase; type: biochemical; conditions: for conversion to MTX: in the dark, 1000 nmol/L RBC
T1 construct: contacting the extract with plasma as a source of gamma glutamyl hydrolase; tissue Sigma P9523; host or cells: reconstituted lyophilized plasma (purchased), mixed with RBC hemolysate from healthy donors
T1 sequence (Q92820 25-318): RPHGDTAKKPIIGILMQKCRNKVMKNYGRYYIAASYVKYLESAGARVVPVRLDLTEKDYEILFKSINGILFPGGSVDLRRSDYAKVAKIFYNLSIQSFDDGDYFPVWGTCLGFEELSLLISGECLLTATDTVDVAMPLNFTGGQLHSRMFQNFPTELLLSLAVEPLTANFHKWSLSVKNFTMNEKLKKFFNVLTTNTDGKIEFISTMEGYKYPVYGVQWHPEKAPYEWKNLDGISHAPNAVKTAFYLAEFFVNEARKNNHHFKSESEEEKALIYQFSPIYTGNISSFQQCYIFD
Description: MTXPGs were enzymatically converted to MTX by incubation with RBC extract and plasma as follows. RBCs were isolated from healthy donors (Blood bank; San Diego, Calif.) Hemolysates were prepared having 0.88×10^9 RBC per 100 μl. For spiked samples, MTXPG (Schirks Laboratories; Jona, Switzerland) was added to RBC extracts at a final concentration of 1 μM (from stock solutions containing 100 μM MTXPG in 0.1 N potassium hydroxide). Reconstituted plasma was prepared from lyophilized plasma (Sigma, St. Louis, USA; Cat. No. P9523) and 100 μl was added to 50 μl of RBC extract, mixed for 30 seconds, and 100 μl of buffer containing 100 mM potassium phosphate pH 4.5 and 150 mM mercaptoethanol was added. […] Samples were incubated for 12-14 hours, unless otherwise indicated, in the dark at 37° C. After incubation 30 μl of 70% perchloric acid was added to the mixture, vortexed for 15 seconds and centrifuged for 10 minutes. A total volume of 80 μl was injected onto the HPLC system for analysis using the MTX detection system described in Example I.
The percent conversion of MTXPG to MTX was determined by comparing the peak area of MTX formed during the enzymatic conversion at different times with the peak area of MTX spiked in the red blood cells at the same concentration.

[1] = Intracellular MTX and MTXPG levels in RBCs of polyarthritis patients receiving low-dose MTX; type: in vivo, human; conditions: one patient on 2.5 mg per week MTX, RBC
Description: Blood samples (5 ml) from polyarthritis patients receiving low-dose MTX were collected after written informed consent. The patients had received a median of 15 mg MTX (range 2.5 mg to 40 mg per week) for at least three months. Blood samples were centrifuged for 10 minutes to separate plasma and buffy coat from RBCs. After washing the RBC pellet with 2 volumes of saline, RBC count was determined with a Beckman Coulter Onyx Counter; RBCs were subsequently stored at −70° C. until analysis. Results were normalized to 10^9 red blood cells. Patient results were expressed as average ±SEM (range).
MTXPG concentrations were determined using the methods described in Example II except that RBC extracts were not spiked with MTXPG. MTXPG concentrations were calculated by subtracting […]. To quantify MTX concentrations without enzymatic treatment, a second 100 μl aliquot of patient RBC extract was obtained but not treated with plasma or buffer. Rather, 200 μl water was added to the RBC extract prior to immediate deproteinization with 30 μl 70% perchloric acid as described above.
An exemplary determination of MTXPG concentration in the red blood cells of a patient on 2.5 mg per week MTX therapy follows. […]

Row | Compound | slope of plot of observed MTX concentration versus spiked concentration (gamma glutamyl hydrolase; RBC sample spiked prior to deglutamation (FIG. 5)) | conversion to MTX (gamma glutamyl hydrolase; after 8 hour incubation at 37° C.) | conversion to MTX (gamma glutamyl hydrolase; by 4 hours, 37° C.) | MTX concentration prior to enzymatic conversion [1] [pmol MTXPG/10^9 cells]
1 | CN(Cc1cnc2nc(N)nc(N)c2n1)c1ccc(C(=O)N[C@@H](CCC(=O)N[C@@H](CCC(=O)O)C(=O)O)C(=O)O)cc1 [MTXPG2] | 0.98 | completely converted | largely complete | –
2 | CN(Cc1cnc2nc(N)nc(N)c2n1)c1ccc(C(=O)N[C@@H](CCC(=O)O)C(=O)O)cc1 [MTX, methotrexate] | – | – | – | 16.5
